# Assay results from patent publication US20230140972A1, “GLYCEROL GLUCOSIDE-BASED COMPOUND AND COMPOSITION COMPRISING SAME FOR ULTRAVIOLET LIGHT SHIELD OR ANTI-INFLAMMATION” (ATHENA CO., LTD., priority 2020, published 2023).
# “And” between values parts separate entries of the source, which are not always exact repeats. Equal entries are not always repeated.
# Assays:
# [1] = tested on: NO production in LPS-treated RAW264.7 cells; assay: Nitric oxide (NO) production inhibition, non-enzymatic method (Griess); type: cell-based; details: Mus musculus, LPS 1 μg/mL, read-out: NO production inhibition rate
# Method: An NO assay was performed to evaluate the nitric oxide (NO) production inhibition ability of the glycerol glucoside-based compound sample (EPS-S).
# Specifically, subcultured RAW264.7 cells were aliquoted in a 96-well plate at 1×10^5 cells/well, and cultured for 24 hours at 37° C. in an incubator containing 5% carbon dioxide, and then, a culture media was replaced with a serum-free media. Then, each sample was diluted by concentration, treated onto the cell with LPS (final 1 μg/mL), and after culturing for 24 hours, the cell culture medium and a Griess reagent were reacted, and an absorbance was then measured at 540 nm with a microplate reader. Dexamethasone was used as a positive control group. After the test was conducted once, each absorbance value was substituted into Equation 2 below to obtain the NO production inhibition rate (%), and it was expressed as the mean±standard deviation.
# [2] = tested on: IL-6 production in RAW264.7 cells; assay: IL-6 production inhibition using ELISA assay; type: cell-based, mouse; details: LPS 10 ng/mL
# Method: An IL-6 ELISA assay was used to evaluate an IL-6 production inhibition ability of the sample in RAW264.7 cells.
# Specifically, subcultured RAW264.7 cells were aliquoted into a 6-well dish at 1.5×10^6 cells/well and cultured for 24 hours at 37° C. in an incubator containing 5% carbon dioxide, and then a culture media was replaced with a serum-free media. Then, each sample was diluted by concentration and treated onto the cells with LPS (final 10 ng/mL). After culturing for 24 hours, the cell culture medium was recovered and an IL-6 ELISA assay was performed.
# 50 μL of an assay diluent was put into each well, and 50 μL of each of a standard solution and a cell culture solution were added to each well and reacted at room temperature for 2 hours. Thereafter, the reaction solution was removed from each well, washed with a wash buffer, 100 μL of IL-6 conjugate was added, and after reaction at room temperature for 2 hours, the reaction solution was removed from each well and washing is performed with a wash buffer.
# Next, 100 μL of a substrate solution was added and a reaction under light blocking was carried out at room temperature, and then 100 μL of a stop solution was added, and an absorbance was measured at 450 and 570 nm. Dexamethasone was used as a positive control group. After the test was conducted once, an IL-6 production amount was calculated by substituting the absorbance value into a IL-6 standard solution calibration curve, and then the IL-6 production inhibition rate (%) was calculated using Equation 4 below, and expressed as the mean±standard deviation of the experiment.
# [3] = tested on: COX-2 mRNA in RAW264.7 cells; assay: COX-2 mRNA expression analysis (RT-qPCR); type: cell-based, mouse; details: LPS 100 ng/mL
# Method: An RT-qPCR was performed to evaluate an mRNA expression inhibition ability of COX-2 and iNOS of the glycerol glucoside-based compound sample (EPS-S).
# Specifically, subcultured RAW264.7 cells were aliquoted into a 60 mm dish at 1.5×10^6 cells, and cultured at 37° C. in an incubator containing 5% carbon dioxide for 24 hours, and then a culture media was replaced with a serum-free media. Then, each sample was diluted by concentration and treated onto the cells with LPS (final 100 ng/mL). After culturing for 24 hours, cells were recovered, RNA was extracted, and cDNA was synthesized. For cDNA, qPCR was performed after mixing Real-time PCR Master Mix with TaqMan probes of each of COX-2 and iNOS. Dexamethasone was used as a positive control group. The test was conducted once, and the mRNA expression inhibition rate was obtained by analyzing the result by the ΔΔCt method, and then substituted into Equation 6 below to obtain the mRNA expression inhibition rate of COX-2 and iNOS of the treated sample group compared to the negative control group.
# [4] = tested on: total NO production in LPS-treated RAW264.7 cells; assay: Nitric oxide (total NO) production and inhibition, enzymatic method; type: cell-based, mouse; details: LPS 1 μg/mL
# Method: An NO assay was performed to evaluate an amount of nitric oxide (total NO) production and a production inhibition rate of the glycerol glucoside-based compound sample (EPS-S).
# Specifically, subcultured RAW264.7 cells were aliquoted into a 96-well plate at 1×10^5 cells/well, and cultured at 37° C. in an incubator containing 5% carbon dioxide for 24 hours, and then a culture media was replaced with a serum-free media. Then, each sample is diluted by concentration and treated onto the cells with LPS (final 1 μg/mL). After culturing for 24 hours, a cell culture medium was treated with nitrate reductase, enzyme cofactor and enhancer to react. A Griess reagent was added and an absorbance was measured at 540 nm with a microplate reader. A total NO production was obtained by substituting the absorbance into a standard nitric oxide calibration curve, and a total NO production inhibition rate (%) was analyzed through Equation 2 and expressed as a mean±standard deviation. Dexamethasone was used as a positive control group.
# [5] = 24 h, 20 μM, listed as dexamethasone
# [6] = 24 h, 80 μM, listed as dexamethasone
smiles,measurement,setting,value
COCC(COC)OC1OC(CO)C(O)C(O)C1O (centres unmarked) [EPS-S],inhibition at 1 ppm,"[1]; 24 h, 1 ppm",-5.66%
same,inhibition at 10 ppm,"[1]; 24 h, 10 ppm",6.1%
same,inhibition at 100 ppm,"[1]; 24 h, 100 ppm",14.2%
same,inhibition at 1000 ppm,"[1]; 24 h, 1,000 ppm",30.3%
same,inhibition at 10 ppm,"[2]; Mus musculus, RAW264.7, 24 h, 10 ppm, read-out: IL-6 production inhibition ability",10.1%
same,inhibition at 100 ppm,"[2]; Mus musculus, RAW264.7, 24 h, 100 ppm, read-out: IL-6 production inhibition ability",23.8%
same,inhibition at 500 ppm,"[2]; Mus musculus, RAW264.7, 24 h, 500 ppm, read-out: IL-6 production inhibition ability",36.3%
same,inhibition at 1000 ppm,"[2]; Mus musculus, RAW264.7, 24 h, 1,000 ppm, read-out: IL-6 production inhibition ability",92.4%
same,COX-2 mRNA expression inhibition rate,"[3]; 24 h, 10 ppm",−9.09% and −9.09 ± 3.16%
same,COX-2 mRNA expression inhibition rate,"[3]; 24 h, 100 ppm",74.44% and 74.44 ± 0.91%
same,COX-2 mRNA expression inhibition rate,"[3]; 24 h, 500 ppm",76.43% and 76.43 ± 1.11%
same,COX-2 mRNA expression inhibition rate,"[3]; 24 h, 1,000 ppm",83.19% and 83.19 ± 1.30%
same,Total NO production,"[4]; 24 h, 100 ppm",62.07 µM and 62.07 ± 0.48 µM
same,Total NO production inhibition rate,"[4]; 24 h, 100 ppm",−3.85 ± 2.22%
same,Total NO production,"[4]; 24 h, 500 ppm",59.20 µM and 59.20 ± 0.86 µM
same,Total NO production,"[4]; 24 h, 1000 ppm",53.38 µM and 53.38 ± 0.18 µM
same,inhibition at 10 ppm,"[4]; Mus musculus, RAW264.7, 24 h, 10 ppm, read-out: Total NO production inhibition rate",-11.3 ± 1.24%
same,inhibition at 500 ppm,"[4]; Mus musculus, RAW264.7, 24 h, 500 ppm (text b176), read-out: Total NO production inhibition rate",-3.84%
same,inhibition at 1000 ppm,"[4]; Mus musculus, RAW264.7, 24 h, 1000 ppm, read-out: Total NO production inhibition rate",11.2%
C[C@@H]1C[C@H]2[C@@H]3CCC4=CC(=O)C=C[C@]4(C)[C@@]3(F)[C@@H](O)C[C@]2(C)[C@@]1(O)C(=O)CO [Dexamethasone],inhibition at 10 µM,"[1]; 24 h, 10 μM",15.6%
same,inhibition at 20 µM,"[1]; 24 h, 20 μM",18%
same,inhibition at 40 µM,"[1]; 24 h, 40 μM",27.6%
same,inhibition at 80 µM,"[1]; 24 h, 80 μM",33.8%
same,IL-6 production inhibition ability,"[2]; 24 h, 10 Mm (10 μM)",55.97%
same,inhibition at 1 µM,"[2]; Mus musculus, RAW264.7, 24 h, 1 μM, read-out: IL-6 production inhibition ability",12.7%
same,inhibition at 5 µM,"[2]; Mus musculus, RAW264.7, 24 h, 5 μM, read-out: IL-6 production inhibition ability",48.4%
same,inhibition at 20 µM,"[2]; Mus musculus, RAW264.7, 24 h, 20 μM, read-out: IL-6 production inhibition ability",63.3%
same,inhibition at 50 µM,"[2]; Mus musculus, RAW264.7, 24 h, 50 μM (text b146), read-out: IL-6 production inhibition rate",88.7%
same,COX-2 mRNA expression inhibition rate,"[3]; 24 h, 1 μM",22.64 ± 1.27%
same,COX-2 mRNA expression inhibition rate,"[3]; 24 h, 1 μM, listed as dexamethasone",22.64%
same,COX-2 mRNA expression inhibition rate,"[3]; 24 h, 5 μM",71.72 ± 0.69%
same,COX-2 mRNA expression inhibition rate,"[3]; 24 h, 5 μM, listed as dexamethasone",71.72%
same,COX-2 mRNA expression inhibition rate,"[3]; 24 h, 20 μM",81.78 ± 0.60%
same,COX-2 mRNA expression inhibition rate,[3]; [5],81.78%
same,COX-2 mRNA expression inhibition rate,"[3]; 24 h, 80 μM",84.23 ± 0.41%
same,COX-2 mRNA expression inhibition rate,[3]; [6],84.23%
same,COX-2 mRNA expression inhibition rate,"[3]; 24 h, 10 Mm (table head; text 10 μM)",76.82 ± 1.73%
same,COX-2 mRNA expression inhibition rate,"[3]; 24 h, 10 Mm (table head; text 10 μM), listed as dexamethasone",76.82%
same,Total NO production,"[4]; 24 h, 10 μM",41.15 ± 0.43 µM
same,Total NO production,"[4]; 24 h, 10 μM, listed as dexamethasone",41.15 µM
same,Total NO production,"[4]; 24 h, 20 μM",38.84 ± 1.24 µM
same,Total NO production,[4]; [5],38.84 µM
same,Total NO production,"[4]; 24 h, 80 μM",37.82 ± 0.75 µM
same,Total NO production,[4]; [6],37.82 µM
same,inhibition at 10 µM,"[4]; Mus musculus, RAW264.7, 24 h, 10 μM, read-out: Total NO production inhibition rate",42.8%
same,inhibition at 20 µM,"[4]; Mus musculus, RAW264.7, 24 h, 20 μM, read-out: Total NO production inhibition rate",48.7%
same,inhibition at 80 µM,"[4]; Mus musculus, RAW264.7, 24 h, 80 μM, read-out: Total NO production inhibition rate",51.4%
